# Biological target: human recombinant USP30 (Homo sapiens (Human), UniProt Q70CQ3)
# Assay: Ubiquitin-Rhodamine 110 Assay for USP30 Activity
# Format: biochemical
# Conditions: 0.2 nM USP30, 25 nM Ub-Rh110, 30 min preincubation
# Description: The assay was performed in a final volume of 9 μL in assay buffer containing 20 mM Tris-HCl (pH 8.0, (IM Tris-HCl, pH 8.0 solution; Corning 46-031-CM)), 1 mM GSH (L-glutathione reduced, Sigma-Aldrich, G4251-100G), 0.03% BGG (0.22 μM filtered, Sigma, G7516-25G), and 0.01% Triton X-100 (Sigma, T9284-10L). Nanoliter quantities of 10-point, 3-fold serial dilution in DMSO were pre-dispensed into 1536 assay plates (Corning, #3724BC) for a final test concentration of 25 μM to 1.3 nM, top to lowest dose, respectively. Concentration and incubation times were optimized for the maximal signal-to-background while maintaining initial velocity conditions at a fixed substrate concentration. The final concentration of USP30 (human recombinant USP30, Boston Biochem, cat. #E-582) in the assay was 0.2 nM. Final substrate (Ub-Rh110; Ubiquitin-Rhodamine 110, UbiQ-126) concentration was 25 nM with [Ub-Rh110]<<Km. 3 μL of 2×USP30 was added to assay plates (pre-stamped with compound), preincubated for 30 minutes and then treated with 3 μL of 2×Ub-Rh110. Plates were incubated for 30 minutes at room temperature before addition of 3 μL of stop solution (final concentration of 10 mM citric acid (Sigma, 251275-500G)). Fluorescence was read on the Envision (excitation at 485 nm and emission at 535 nm; Perkin Elmer) or on the PheraSTAR (excitation at 485 nm and emission at 535 nm; BMG Labtech) fluorescence reader.
# For all assay formats, data were reported as percent inhibition compared with control wells based on the following equation: % inh=1−((FLU−AveLow)/(AveHigh−AveLow)) where FLU=measured Fluorescence, AveLow=average Fluorescence of no enzyme control (n=16), and AveHigh=average Fluorescence of DMSO control (n=16). IC50 values were determined by curve fitting of the standard 4 parameter logistic fitting algorithm included in the Activity Base software package: IDBS XE Designer Model205. Data is fitted using the Levenburg Marquardt algorithm.
# Sequence of human recombinant USP30 (Q70CQ3 whole entry): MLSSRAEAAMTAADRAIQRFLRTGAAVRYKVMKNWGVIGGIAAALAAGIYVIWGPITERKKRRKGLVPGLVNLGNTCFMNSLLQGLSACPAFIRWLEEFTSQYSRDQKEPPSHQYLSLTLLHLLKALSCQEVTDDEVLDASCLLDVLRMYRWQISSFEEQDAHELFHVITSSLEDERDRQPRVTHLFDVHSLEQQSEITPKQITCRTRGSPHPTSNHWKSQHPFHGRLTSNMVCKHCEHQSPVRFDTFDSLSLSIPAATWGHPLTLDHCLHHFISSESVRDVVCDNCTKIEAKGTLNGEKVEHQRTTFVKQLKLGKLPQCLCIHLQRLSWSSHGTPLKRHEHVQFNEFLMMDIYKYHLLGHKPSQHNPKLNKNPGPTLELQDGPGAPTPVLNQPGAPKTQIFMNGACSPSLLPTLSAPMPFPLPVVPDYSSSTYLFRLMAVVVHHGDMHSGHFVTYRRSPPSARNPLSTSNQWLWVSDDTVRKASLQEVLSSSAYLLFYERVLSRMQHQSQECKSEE
row,Structure (SMILES),IC50 [nM]
1,"N#CN1C[C@H]2C[C@@H]1CN2C(=O)c1cc(-c2ccccc2Oc2ccccc2)[nH]n1 (single isomer, unassigned) [Compound 4-b]",100 to 1000
2,"N#CN1CC2CCC1C2NC(=O)c1cc(-c2ccccc2Oc2ccccc2)[nH]n1 (single isomer, unassigned) [Compound 2-a]",< 100
3,"N#CN1C[C@@H](NC(=O)c2cc(-c3ccccc3Oc3ccccc3)[nH]n2)CC12COC2 (single isomer, unassigned) [Compound 9-a]",> 1000
4,"N#CN1C[C@@H]2C[C@H]1[C@@H]2NC(=O)c1cc(-c2ccccc2Oc2ccccc2)[nH]n1 (single isomer, unassigned) [Compound 8-b]",100 to 1000
5,"N#CN1C[C@H]2C[C@@H]1[C@H]2NC(=O)c1cc(-c2ccccc2Oc2ccccc2)[nH]n1 (single isomer, unassigned) [Compound 8-a]",100 to 1000
6,"N#CN1CC2CCC1C2NC(=O)c1cc(-c2ccccc2Oc2ccccc2)[nH]n1 (single isomer, unassigned) [Compound 2-b]",> 1000
7,"N#CN1C[C@@H](NC(=O)c2cc(-c3ccccc3Oc3ccccc3)[nH]n2)C2(CC2)C1 (single isomer, unassigned) [Compound 5-a]",< 100
8,"N#CN1C[C@H](NC(=O)c2cc(-c3ccccc3Oc3ccccc3)[nH]n2)C2(CC2)C1 (single isomer, unassigned) [Compound 5-b]",100 to 1000
9,"N#CN1C[C@H](NC(=O)c2cc(-c3ccccc3Oc3ccccc3)[nH]n2)CC12COC2 (single isomer, unassigned) [Compound 9-b]",> 1000
10,"N#CN1C[C@H]2C[C@@]2(NC(=O)c2cc(-c3ccccc3Oc3ccccc3)[nH]n2)C1 (single isomer, unassigned) [Compound 3-a]",100 to 1000
11,"N#CN1C[C@@H]2C[C@H]1CCN2C(=O)c1cc(-c2ccccc2Oc2ccccc2)[nH]n1 (single isomer, unassigned) [Compound 1-a]",100 to 1000
12,"N#CN1C[C@@H]2CC[C@]2(NC(=O)c2cc(-c3ccccc3Oc3ccccc3)[nH]n2)C1 (stereo in doubt) [Compound 6-a, N-((1R,5S)-3-cyano-3-azabicyclo[3.2.0]heptan-1-yl)-5-(2-phenoxyphenyl)-1H-pyrazole-3-carboxamide]",< 100
13,"N#CN1C[C@@H]2CCC[C@]2(NC(=O)c2cc(-c3ccccc3Oc3ccccc3)[nH]n2)C1 (single isomer, unassigned) [Compound 20-a]",< 100
14,"N#CN1C[C@@H]2C[C@H]1CN2C(=O)c1cc(-c2ccccc2Oc2ccccc2)[nH]n1 (single isomer, unassigned) [Compound 4-a]",100 to 1000
15,"N#CN1C[C@@H]2C[C@]2(NC(=O)c2cc(-c3ccccc3Oc3ccccc3)[nH]n2)C1 (single isomer, unassigned) [Compound 3-b]",< 100
16,"N#CN1C[C@H]2CC[C@@]2(NC(=O)c2cc(-c3ccccc3Oc3ccccc3)[nH]n2)C1 (stereo in doubt) [Compound 6-b, N-((1S,5R)-3-cyano-3-azabicyclo[3.2.0]heptan-1-yl)-5-(2-phenoxyphenyl)-1H-pyrazole-3-carboxamide]",100 to 1000
17,"N#CN1C[C@H]2C[C@@H]1CCN2C(=O)c1cc(-c2ccccc2Oc2ccccc2)[nH]n1 (single isomer, unassigned) [Compound 1b]",< 100
18,"N#CN1C[C@H]2CCC[C@@]2(NC(=O)c2cc(-c3ccccc3Oc3ccccc3)[nH]n2)C1 (single isomer, unassigned) [Compound 20-b]",< 100

# From patent US11814386B2, “Fused pyrrolines which act as ubiquitin-specific protease 30 (USP30) inhibitors” (FORMA Therapeutics, Inc., priority 2018, dated 2023)
